According to patent US20020110801A1, “A Method for screening compounds for the modulation of cognitive function” (priority 1998, published 2002):
Marks after values point to notes of the source that are not given here.

Tests used:
[1] = tested on: dendritic spine motility in hippocampal neurons expressing GFP-actin; type: cell-based, rat; details: for effect of NMDA receptor blockade on spine motility: antagonist alone; for influence on the inhibition of motility by AMPA: antagonist present with AMPA
Experimental: In this example it is shown that dendritic spine motility is inhibited by AMPA. To assess the influence of glutamate receptors on dendritic spine motility video recordings are made during which agonists and antagonists of ionotropic glutamate receptors are transiently applied to hippocampal neurons expressing GFP-actin. For example, such a recording is made from part of the dendrite of a GFP-actin expressing cell in a culture that is exposed to 200 nM AMPA. In initial titration experiments, AMPA is effective at concentrations as low as 50 nM. […] The striking extent of this motility blockade may be illustrated by video data. […] In order to exclude the effect being a consequence of indirect NMDA receptor activation, the experiment may be repeated in presence of the selective NMDA receptor antagonists APV and MK801. Data may be recorded for several spines on a single dendrite segment at high magnification so that the effect of AMPA on individual spines is visible. […] The results for APV are equivalent. Such frames are taken from a longer video recording encompassing a much larger area of this dendrite and several different drug combinations. […]
All reagents for cell culturing are obtained either from Life Technologies, Basel, Switzerland, or from Sigma Chemicals/Fluka Biochemicals, Buchs, Switzerland. Cultures of primary rat hippocampal neurons are established exactly according to Goslin and Banker (Rat hippocampal neurons in low-density culture, in Culturing Nerve Cells (Bradford Book, MIT Press, Cambridge, Mass., 1991) G. Banker and K. Goslin, eds.). Briefly, dissected hippocampi of E19 rat embryos are digested with 0.25% trypsin for 15 min at 37° C. and triturated to yield a single cell suspension using a narrow-bore pasteur pipet. Neurons are plated onto polylysine treated glass coverslips in Eagle's minimal essential medium supplemented with 10% horse serum. After a 4 hr incubation the coverslips are turned over onto confluent layers of primary astroglial feeder layers in chemically defined Eagle's minimal essential medium with N2 supplement. Over a time period of 3-4 weeks, neurons develop large networks of processes and eventually matured to carry synapses on dendritic spines.
For live imaging, coverslips are mounted in saline in closed observation chambers (Type 1, Life Imaging Services, Olten, Switzerland) and placed at 37° C. on a DM-IRBE inverted fluorescence microscope (Leica, Basel, Switzerland) equipped with high numerical aperture oil lenses and a GFP-optimized filter set (Chroma Technologies, Brattleboro, Vt., USA). […]
Drugs are either applied by gravity feed perfusion or by removing the chamber lid and adding the test substance. […] The pH is adjusted to 7.2. [NMDA and AMPA receptor activity is influenced by the extracellular concentration of protons (Kashiwagi et al., 1997; Saybasili et al., 1998; Mc Donald et al., 1998)]

[2] = tested on: distribution of GFP-actin fluorescence in hippocampal neurons; experiment: GFP-actin fluorescence intensity in successive video frames; type: cell-based, rat
Description: In this example it is shown that AMPA treatment appears to involve a redistribution of spine actin. A further consistent consequence of treating hippocampal neurons with AMPA is a visible change in the distribution of GFP-actin fluorescence involving an apparent shift toward a concentration in the centre of the spine head. GFP-actin fluorescence intensity may be measured in successive frames of video recordings in which AMPA is transiently present. Measurements are made for a whole dendritic segment and within boxes of the same area placed in the center of spine heads or on the dendritic shaft, respectively. […] This phenomenon could reflect some general aspect of gfp fluorescence in response to an altered ion concentration or pH of the local cytoplasm. Fluorescence excitation of gfp in solution decreases at low pH. Therefore the observed decrease in brightness might be attributed to a lowered pH, mediated by glutamate receptor activation. Application of glutamate or Ca2+ ionophores to rat primary cultured hippocampal neurons is shown to induce a persistent acidosis. To account for this effect, data are normalized for single spines to the overall brightness of the dendrite. The average brightness from the boxes during the recordings for three randomly selected spines may then be evaluated. […] For above mentioned reasons, it is not entirely clear, if the apparent reduction in spine diameter is due to loss of actin fluorescence because of pH shifts or actin concentration in the center of spine heads, but comparison of phase and GFP-actin pictures argue in favour of changes in spine head size. The same caution has to apply to changes in the diameter of the spine neck, which have been postulated to influence synaptic weight by altering the electrical resistance. Those structures are extremely small and for a detailed analysis electronmicroscopic analysis would be favourable.

[3] = in phosphate-buffered saline; McKenzie et al. 1995; cited from earlier work
[4] = tested on: actin-based motility in dendritic spines; experiment: video time-lapse recording of dendritic spine motility (shape factor) in GFP-actin transfected hippocampal neurons, volatile anaesthetics; type: cell-based, rat; details: for Effective conc. for spine motility: calculated from concentration of saturated solution at 25° C. used as stock solution; for effect on spine shape change / spine motility in presence of the anaesthetic: clinically relevant concentrations in saline; for spine motility after the anaesthetic is removed: washout
Experimental: To examine the influence of volatile anaesthetics on spine motility their effects on live, cultured hippocampal neurons that have been transfected with green fluorescent protein-tagged actin (GFP-actin) to render their dendritic spines visible are studied.
The following example further illustrates the employment of an assay according to the invention. First, the shape of a dendritic spine on a rat hippocampal neuron in culture as visualized by GFP-actin enriched in the spine head is recorded about every 5 sec over a period of about 6 min prior to perfusion with isoflurane. Then the cells are slowly perfused with isoflurane at clinically relevant concentrations in saline. This step is followed by an additional time-lapse recording over about 6 min. Then a morphometric analysis of spine shape is done using the integrated morphometry analysis interface in Metamorph 3.0. In particular, the shape factor calculated from the perimeter and the area of the spine illustrates changes in spine shape.
All reagents for cell culturing are obtained either from Life Technologies, Basel, Switzerland, or from Sigma Chemicals/Fluka Biochemicals, Buchs, Switzerland. […] Neurons are plated onto polylysine treated glass coverslips in Eagle's minimal essential medium supplemented with 10% horse serum. After a 4 hr incubation the coverslips are turned over onto confluent layers of primary astroglial feeder layers in chemically defined Eagle's minimal essential medium with N2 supplement. Over a time period of 3-4 weeks, neurons develop large networks of processes and eventually matured to carry synapses on dendritic spines.
For live imaging, coverslips are mounted in saline in closed observation chambers (Type 1, Life Imaging Services, Olten, Switzerland) and placed at 37° C. on a DM-IRBE inverted fluorescence microscope (Leica, Basel, Switzerland) equipped with high numerical aperture oil lenses and a GFP-optimized filter set (Chroma Technologies, Brattleboro, Vt., USA).
Images are captured using a cooled CCD camera (Princeton Instruments, Trenton, N.J., USA) and MetaMorph Imaging Software version 3.0 (Universal Imaging Corporation, West Chester, Pa., USA). Anaesthetics are diluted from saturated solutions in saline into prewarmed saline immediately prior to slow perfusion into the closed observation chambers at a rate of approx. 0.5 ml/min for a total exchange of 5 ml volume.
For analysis of spine shape over time the integrated morphometric function of MetaMorph 3.0, in particular the shape factor of thresholded objects calculated from their perimeter and their area, is used to log the data for individual images directly to Microsoft Excel 97.

tadpoles = details: based on EC50 in tadpoles; read-out: Effective conc. for anesthesia; cited from earlier work
rats = details: based on minimal alveolar concentration (MAC) in rats; cited from earlier work
rat embryo fibroblasts = experiment: TPA-induced membrane ruffling, rhodamine-phalloidin staining of actin; type: cell-based; details: pretreatment of cells; 100 nM TPA 15 min
Description: The results of these experiments on neurons pose the question of whether volatile anaesthetics act directly on actin in dendritic spines or indirectly through neurotransmitter receptors, which are also influenced by these agents at clinically relevant concentrations, or some other component of central synapses. To choose between these possibilities the influence of volatile anaesthetics on actin-based motility is examined in fibroblastic cells, where neurotransmitter receptors and other elements of the synaptic machinery are absent. […] Resting layers of rat embryo fibroblasts in saline are treated for 15 min with 100 nM TPA which induces membrane ruffling. Cells are fixed and stained with rhodamine-labelled phalloidin to visualize actin enrichment in ruffles at the edges of the cells. […]
For analysis of the actin cytoskeleton in REF52, cells plated on glass coverlips are serum-starved for several hours prior to the experiment. […] Cells are then fixed with 4% paraformaldehyde (Fluka Biochemicals, Buchs, Switzerland) in phosphate-buffered saline with 0.02% Triton X-100 (Fluka Biochemicals, Buchs, Switzerland) and […] rhodamine-labelled phalloidin F(Sigma Chemicals, Buchs, Switzerland) for 10 min at room temperature, rinsed in phosphate-buffered saline and mounted in Vectashield (Vector Laboratories, Burlingame, Calif., USA) for inspection on the fluorescence microscope.

pure actin = experiment: pyrene-actin fluorescence assay of actin filament assembly in vitro; type: biochemical; details: during assembly or added to pre-formed filaments
Experimental: Since actin-based motility in dendritic spines depends on the actin polymerization cycle the possible influence of isoflurane on actin filament assembly is tested in vitro using a well-established pyrene-actin fluorescence assay.

Cc1onc(OCC(=O)O)c1CC(N)C(=O)O (stereo not shown) [AMOA, 2-amino-3-[3-(carboxymethoxy)-5-methyl-isoxazol-4-yl]propionic acid]
block of the effect of AMPA on spine motility ([1]; AMPA receptor antagonist applied with AMPA): entirely blocked

Cc1onc(O)c1CC(N)C(=O)O (stereo not drawn) [AMPA, α-amino-3-hydroxy-5-methylisoxazole-4-propionic acid]
GFP-actin fluorescence intensity over the whole dendrite ([2]; after application of AMPA): decrease in intensity | average brightness of the dendritic shaft ([2]; normalized to overall brightness of the dendrite): reduced | GFP-actin fluorescence intensity in the centre of spine heads ([2]; three randomly selected spines, normalized to overall brightness of the dendrite): marked increase | dendritic varicosities associated with subsequent cell death ([1]; 50 nM to 200 nM): do not produce dendritic varicosities | reversibility of effect on spine motility ([1]; 50 nM to 200 nM): reversible | spine movement ([1]; 200 nM AMPA present): spine movement effectively ceases | lowest effective concentration on spine motility ([1]; initial titration experiments): 50 nM

N[C@@H](CCCP(=O)(O)O)C(=O)O [APV]
effect of NMDA receptor blockade on spine motility [1]: equivalent | influence on the inhibition of motility by AMPA [1]: equivalent

ClC(Cl)Cl [Chloroform]
concentration of saturated solution [3]: 66000 µM | Effective conc. for spine motility [4]: 1.33 mM | effect on spine shape change / spine motility in presence of the anaesthetic [4]: variation in spine shape is minimal | spine motility after the anaesthetic is removed [4]: rapid changes in spine shape are resumed | EC50 (tadpoles): 1.3 mM

CCOCC [Diethylether, diethylether]
concentration of saturated solution [3]: 816000 µM | Effective conc. for spine motility [4]: 20.4 mM | EC50 (tadpoles): 25 mM

FC(F)OC(F)(F)C(F)Cl (stereo not shown) [Enflurane]
concentration of saturated solution [3]: 11900 µM | Effective conc. for anesthesia (rats): 0.64^a mM | Effective conc. for spine motility [4]: 0.30 mM

FC(F)(F)C(Cl)Br (stereo not shown) [Halothane]
Effective conc. for anesthesia (rats): 0.27^a mM | Effective conc. for spine motility [4]: 0.23 mM

FC(F)OC(Cl)C(F)(F)F (stereo not shown) [Isoflurane]
concentration of saturated solution [3]: 15300 µM | TPA-induced actin ruffles (rat embryo fibroblasts): prevents TPA-induced actin ruffles | effect on polymerization state of pure actin (pure actin): no detectable effect | Effective conc. for anesthesia (rats): 0.31^a mM | Effective conc. for spine motility [4]: 0.30 mM | effect on spine shape change / spine motility in presence of the anaesthetic [4]: it remains constant | spine motility ([4]; dilution of 1:50 of saturated solution): fully inhibited | spine motility ([4]; dilution of 1:60 of saturated solution): fully motile | spine motility ([4]; dilution of 1:100 of saturated solution): fully motile | spine motility after the anaesthetic is removed [4]: recovery of motility

C=C(C)[C@H]1CN[C@H](C(=O)O)[C@H]1CC(=O)O [Kainate]
mimics the effect of AMPA on spine motility [1]: mimicked

C[C@]12N[C@H](Cc3ccccc31)c1ccccc12 [MK801]
effect of NMDA receptor blockade on spine motility [1]: does not inhibit spine motility | influence on the inhibition of motility by AMPA [1]: does not influence

COC(F)(F)C(Cl)Cl [methoxyflurane, Methoxyflurane]
concentration of saturated solution [3]: 9100 µM
